Measured values reported in paper PMC8468024, “PTP1B Inhibitory Secondary Metabolites from an Antarctic Fungal Strain Acremonium sp. SF-7394” (Molecules, 2021).

Target: T1, protein tyrosine phosphatase 1B (PTP1B) (Homo sapiens, UniProt P18031)
T1 construct: gene PTPN1
T1 sequence (P18031 1-435): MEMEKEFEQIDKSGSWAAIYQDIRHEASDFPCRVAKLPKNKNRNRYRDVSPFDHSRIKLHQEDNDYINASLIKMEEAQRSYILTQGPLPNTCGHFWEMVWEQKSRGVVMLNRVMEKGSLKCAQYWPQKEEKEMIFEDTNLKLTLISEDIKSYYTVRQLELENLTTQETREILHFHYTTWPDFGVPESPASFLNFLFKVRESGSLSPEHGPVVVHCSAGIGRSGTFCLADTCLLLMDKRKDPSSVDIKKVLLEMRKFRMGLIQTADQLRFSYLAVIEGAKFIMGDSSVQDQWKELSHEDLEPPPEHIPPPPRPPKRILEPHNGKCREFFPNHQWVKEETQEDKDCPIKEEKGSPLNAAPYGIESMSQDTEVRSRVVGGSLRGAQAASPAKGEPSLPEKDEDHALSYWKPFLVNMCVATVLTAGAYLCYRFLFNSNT
Experiment: p-NPP hydrolysis assay with recombinant enzyme; Lineweaver–Burk kinetics
Type: biochemical

**Q.** CC(C)C[C@@H]1C[C@H](C)[C@@H]2CC[C@H](C)c3ccc(CO)c1c32 [compound 1, acrepseudoterin] was tested. Which IC50 did it give?
**A.** The IC50 was 22.8 ± 1.1 µM.
